Structures can show the parent of a compound that is named as a salt.
Target: T1, hNav1.7 (Homo sapiens, UniProt Q15858)
T1 construct: expressed in transfected cells
Test: Tritiated compound binding (LBA) to membranes from cells expressing hNav1.7 and the β1 subunit, competitive binding
Details: competitive binding vs 100 pM [3H]compound, 18 h, room temperature, membranes with hNav1.7 and β1 subunit
Procedure: Tritiated Compound Binding to Membranes
Isolated from Cells that Heterologously Express hNav1.7 and the β1 Subunit
Preparation of membranes containing recombinantly expressed sodium channels: Frozen recombinant cell pellets were thawed on ice and diluted to 4 times the cell pellet weight with ice cold 50 mM Tris HCl, pH 7.4 buffer. The cell suspensions were homogenized on ice using a motorized glass dounce homogeniser. […] The supernatants were collected and centrifuged at 10000×g at 4° C. for 50 min. The pellets were then re-suspended in 100 mM NaCl, 20 mM Tris HCl, pH 7.4 buffer containing 1% v/v protease inhibitors (Calbiochem) and re-homogenized on ice. The homogenized membranes were then processed through a syringe equipped with a 26 gauge needle. Protein concentrations were determined by Bradford Assay and the membranes were stored at −80° C.
Saturation experiments. A representative compound of formula (I) having a methyl group was tritiated. Three tritiums were incorporated in place of methyl hydrogens to generate [^3H]compound. Binding of this radioligand was performed in 5 mL borosilicate glass test tubes at room temperature. Binding was initiated by adding membranes to increasing concentrations of [^3H]compound in 100 mM NaCl, 20 mM Tris HCl, pH 7.4 buffer containing 0.01% w/v bovine serum albumin (BSA) for 18 h. Non-specific binding was determined in the presence of 1 μM unlabeled compound. After 18 h, the reactants were filtered through GF/C glass fiber filters presoaked in 0.5% w/v polyethylene imine. […] [^3H]compound bound to filters was quantified by liquid scintillation counting.
Binding reactions were performed in 96-well polypropylene plates at room temperature for 18 h. In 360 μL, membranes were incubated with 100 pM [^3H]compound and increasing concentrations of Test Compound. Non-specific binding was defined in the presence of 1 μM unlabeled compound. Reactions were transferred and filtered through 96-well glass fiber/C filter plates presoaked with 0.5% polyethylene imine. […] Bound radioactivity was determined by liquid scintillation counting.
Data Analysis: For saturation experiments, non-specific binding was subtracted from total binding to provide specific binding and these values were recalculated in terms of pmol ligand bound per mg protein. Saturation curves were constructed and dissociation constants were calculated using the single site ligand binding model: Beq=(Bmax*X)/(X+Kd), where Beq is the amount of ligand bound at equilibrium, Bmax is the maximum receptor density, Kd is the dissociation constant for the ligand, and X is the free ligand concentration. For competition studies percent inhibition was determined and IC50 values were calculated using a 4 parameter logistic model (% inhibition=(A+((B−A)/(1+((x/C)^D)))) using XLfit, where A and B are the maximal and minimum inhibition respectively, C is the IC50 concentration and D is the (Hill) slope.

T1 sequence (Q15858 1-1977 isoform Q15858-3): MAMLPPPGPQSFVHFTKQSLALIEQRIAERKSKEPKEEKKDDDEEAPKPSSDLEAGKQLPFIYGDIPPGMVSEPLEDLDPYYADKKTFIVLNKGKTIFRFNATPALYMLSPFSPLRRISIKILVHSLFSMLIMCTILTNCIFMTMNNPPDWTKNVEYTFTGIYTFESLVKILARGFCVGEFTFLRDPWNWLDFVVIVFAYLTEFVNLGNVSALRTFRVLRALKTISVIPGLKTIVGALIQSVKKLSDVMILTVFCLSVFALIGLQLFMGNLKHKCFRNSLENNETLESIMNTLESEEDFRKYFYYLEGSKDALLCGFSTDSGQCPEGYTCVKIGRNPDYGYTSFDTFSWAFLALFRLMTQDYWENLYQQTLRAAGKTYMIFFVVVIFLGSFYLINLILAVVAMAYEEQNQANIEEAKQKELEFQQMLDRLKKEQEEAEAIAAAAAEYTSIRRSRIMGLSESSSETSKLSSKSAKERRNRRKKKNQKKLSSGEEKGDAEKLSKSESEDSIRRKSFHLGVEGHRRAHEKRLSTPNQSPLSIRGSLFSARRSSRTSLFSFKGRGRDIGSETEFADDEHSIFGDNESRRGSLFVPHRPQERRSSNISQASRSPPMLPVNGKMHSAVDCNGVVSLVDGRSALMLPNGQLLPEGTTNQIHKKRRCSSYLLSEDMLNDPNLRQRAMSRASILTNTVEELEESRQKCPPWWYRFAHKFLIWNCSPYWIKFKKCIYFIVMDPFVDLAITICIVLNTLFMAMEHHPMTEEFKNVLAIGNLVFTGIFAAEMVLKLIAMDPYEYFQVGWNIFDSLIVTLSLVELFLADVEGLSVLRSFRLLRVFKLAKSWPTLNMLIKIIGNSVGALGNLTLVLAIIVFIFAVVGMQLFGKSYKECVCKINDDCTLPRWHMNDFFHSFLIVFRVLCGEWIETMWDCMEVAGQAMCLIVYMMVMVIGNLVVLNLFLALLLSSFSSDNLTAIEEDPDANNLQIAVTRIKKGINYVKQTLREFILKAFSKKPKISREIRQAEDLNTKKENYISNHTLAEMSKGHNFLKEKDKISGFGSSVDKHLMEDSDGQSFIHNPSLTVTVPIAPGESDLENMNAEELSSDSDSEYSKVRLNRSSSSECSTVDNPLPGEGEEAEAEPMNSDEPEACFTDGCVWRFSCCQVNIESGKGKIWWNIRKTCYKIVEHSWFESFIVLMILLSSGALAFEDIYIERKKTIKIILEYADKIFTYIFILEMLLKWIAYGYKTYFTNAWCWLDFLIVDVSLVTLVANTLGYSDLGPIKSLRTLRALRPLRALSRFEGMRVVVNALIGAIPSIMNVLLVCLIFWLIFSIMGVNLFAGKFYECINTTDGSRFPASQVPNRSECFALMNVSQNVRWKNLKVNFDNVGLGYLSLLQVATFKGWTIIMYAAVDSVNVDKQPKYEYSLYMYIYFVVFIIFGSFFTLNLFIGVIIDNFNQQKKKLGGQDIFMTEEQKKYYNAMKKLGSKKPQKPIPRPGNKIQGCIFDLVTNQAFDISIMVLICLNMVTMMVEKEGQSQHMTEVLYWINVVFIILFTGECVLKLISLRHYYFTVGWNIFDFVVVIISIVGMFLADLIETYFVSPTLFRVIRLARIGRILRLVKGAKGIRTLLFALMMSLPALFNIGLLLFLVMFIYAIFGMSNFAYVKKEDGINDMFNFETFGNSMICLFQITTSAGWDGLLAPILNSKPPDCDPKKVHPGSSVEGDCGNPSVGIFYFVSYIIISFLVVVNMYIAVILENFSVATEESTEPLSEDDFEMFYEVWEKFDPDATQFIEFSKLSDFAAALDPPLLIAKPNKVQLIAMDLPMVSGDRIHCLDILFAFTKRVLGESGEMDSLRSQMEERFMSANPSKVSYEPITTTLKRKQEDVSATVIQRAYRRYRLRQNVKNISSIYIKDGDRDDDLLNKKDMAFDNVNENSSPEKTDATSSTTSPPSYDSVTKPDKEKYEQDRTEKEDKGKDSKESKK
T1 sequence (Q07699 19-218 partner): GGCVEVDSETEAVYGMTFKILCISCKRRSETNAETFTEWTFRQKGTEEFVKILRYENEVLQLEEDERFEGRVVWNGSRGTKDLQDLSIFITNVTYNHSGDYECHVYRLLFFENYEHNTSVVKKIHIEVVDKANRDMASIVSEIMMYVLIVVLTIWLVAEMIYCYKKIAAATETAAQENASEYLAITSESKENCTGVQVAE

Row | Compound | IC50 [nM]
1 | COC[C@H](NC(=O)c1cc(C2CC2)c(OCC23CC4CC(CC(C4)C2)C3)cc1F)C(=O)O [Example 10, (S)-2-(4-(adamantan-1-ylmethoxy)-5-cyclopropyl-2-fluorobenzamido)-3-methoxypropanoic acid] | 681
2 | O=C(O)[C@@H]1CCCN1C(=O)c1cc(C2CC2)c(CN2CCC(Oc3cc(Cl)cc(OC(F)(F)F)c3)CC2)cc1F [Example 20, (S)-1-(4-((4-(3-chloro-5-(trifluoromethoxy)phenoxy)piperidin-1-yl)methyl)-5-cyclopropyl-2-fluorobenzoyl)pyrrolidine-2-carboxylic acid trifluoroacetic acid salt] | 554
3 | O=C(O)[C@@H]1CCCN1C(=O)c1cc(Cl)c(Oc2cnc(OCC(F)(F)F)c(Cl)c2)cc1F [Example 24, (S)-1-(5-chloro-4-((5-chloro-6-(2,2,2-trifluoroethoxy)pyridin-3-yl)oxy)-2-fluorobenzoyl)pyrrolidine-2-carboxylic acid trifluoroacetic acid salt] | 2730
4 | O=C(O)[C@@H]1CCCN1C(=O)c1cc(C2CC2)c(O[C@H]2C3CC4CC2C[C@](F)(C4)C3)cc1F [Example 18, (S)-1-(5-cyclopropyl-2-fluoro-4-(((1R,2s,3S,5R,7R)-5-fluoroadamantan-2-yl)oxy)benzoyl)pyrrolidine-2-carboxylic acid] | 4500
5 | CC12CC3(C)CC(C)(C1)CC(COc1cc(F)c(C(=O)N4CCC[C@H]4C(=O)O)cc1C1CC1)(C2)C3 [Example 3, (S)-1-(5-cyclopropyl-2-fluoro-4-((3,5,7-trimethyladamantan-1-yl)methoxy)benzoyl)pyrrolidine-2-carboxylic acid] | 8.9
6 | CC(C)c1cc(C(=O)N2CCC[C@H]2C(=O)O)c(F)cc1OCC12CC3CC(CC(C3)C1)C2 [Example 17, (S)-1-(4-(adamantan-1-ylmethoxy)-2-fluoro-5-isopropylbenzoyl)pyrrolidine-2-carboxylic acid] | 87.2
7 | CC1(C)CCCC(COc2cc(F)c(C(=O)N3CCC[C@H]3C(=O)O)cc2C2CC2)C1 (stereo partly drawn) [Example 16, (2S)-1-(5-cyclopropyl-4-((3,3-dimethylcyclohexyl)methoxy)-2-fluorobenzoyl)pyrrolidine-2-carboxylic acid] | 39.8
8 | Nc1noc2ccc(-c3cc(Cl)ccc3Oc3cc(F)c(C(=O)N4CCC[C@H]4C(=O)O)cc3F)cc12 [Example 25, (S)-1-(4-(2-(3-aminobenzo[d]isoxazol-5-yl)-4-chlorophenoxy)-2,5-difluorobenzoyl)pyrrolidine-2-carboxylic acid trifluoroacetic acid] | > 10000
9 | O=C(O)[C@@H]1CCCN1C(=O)c1cc(C2CC2)c(CN2[C@@H]3CC[C@H]2C[C@@H](Oc2cc(Cl)cc(OC(F)(F)F)c2)C3)cc1F [Example 19, (S)-1-(4-(((1R,3S,5S)-3-(3-chloro-5-(trifluoromethoxy)phenoxy)-8-azabicyclo[3.2.1]octan-8-yl)methyl)-5-cyclopropyl-2-fluorobenzoyl)pyrrolidine-2-carboxylic acid trifluoroacetic acid salt] | 443
10 | CC(C)(C)OC(=O)N1CC(n2nccc2-c2cc(Cl)ccc2Oc2cc(F)c(C(=O)N3CCC[C@H]3C(=O)O)cc2F)C1 [Example 33, (S)-1-(4-(2-(1-(1-(tert-butoxycarbonyl)azetidin-3-yl)-1H-pyrazol-5-yl)-4-chlorophenoxy)-2,5-difluorobenzoyl)pyrrolidine-2-carboxylic acid] | > 10000
11 | O=C(O)[C@@H]1CCCN1C(=O)c1cc(C2CC2)c(OCC23CC4(F)CC(F)(CC(F)(C4)C2)C3)cc1F [Example 4, (5)-1-(5-cyclopropyl-2-fluoro-4-((3,5,7-trifluoroadamantan-1-yl)methoxy)benzoyl)pyrrolidine-2-carboxylic acid] | 817
12 | CC1(COc2cc(F)c(C(=O)N3CCC[C@H]3C(=O)O)cc2C2CC2)CCC(F)(F)CC1 [Example 12, (S)-1-(5-cyclopropyl-4-((4,4-difluoro-1-methylcyclohexyl)methoxy)-2-fluorobenzoyl)pyrrolidine-2-carboxylic acid] | 984
13 | CC1(COc2cc(F)c(C(=O)N3CCC[C@H]3C(=O)O)cc2C2CC2)CN(c2cc(C(F)(F)F)c(Cl)cn2)C1 [Example 21, (S)-1-(4-((1-(5-chloro-4-(trifluoromethyl)pyridin-2-yl)-3-methylazetidin-3-yl)methoxy)-5-cyclopropyl-2-fluorobenzoyl)pyrrolidine-2-carboxylic acid trifluoroacetic acid salt] | 359
14 | O=C(O)[C@@H]1CCCN1C(=O)c1ccc(OCC23CC4CC(CC(C4)C2)C3)c(Cl)c1 [Example 23, (S)-1-((4-(adamantan-1-ylmethoxy))-3-chlorobenzoyl)pyrrolidine-2-carboxylic acid] | 3960

More lines, now with the values ahead:

Row | IC50 [nM] | Compound
15 | > 10000 | N#CC1(COc2cc(F)c(C(=O)N3CCC[C@H]3C(=O)O)cc2Cl)C2CC3CC(C2)CC1C3 (stereo partly drawn) [Example 31, (S)-1-(5-chloro-4-(((1S,3S,5S,7S)-2-cyanoadamantan-2-yl)methoxy)-2-fluorobenzoyl)pyrrolidine-2-carboxylic acid]
16 | 152 | O=C(O)[C@@H]1CCCN1C(=O)c1cc(C2CC2)c(O[C@@H]2CCCN(Cc3ccc(F)cc3Cl)C2)cc1F [Example 38, (S)-1-(4-(((R)-1-(2-chloro-4-fluorobenzyl)piperidin-3-yl)oxy)-5-cyclopropyl-2-fluorobenzoyl)pyrrolidine-2-carboxylic acid trifluoroacetic acid salt]
17 | 43.6 | CC(c1cc(Cl)cc(Cl)c1)N1CCC(COc2cc(F)c(C(=O)N3CCC[C@H]3C(=O)O)cc2C2CC2)CC1 (stereo partly drawn) [Example 39, (2S)-1-(5-cyclopropyl-4-((1-(1-(3,5-dichlorophenyl)ethyl)piperidin-4-yl)methoxy)-2-fluorobenzoyl)pyrrolidine-2-carboxylic acid trifluoroacetic acid salt]
18 | 2700 | O=C(O)[C@@H]1CCCN1C(=O)c1cc(Cl)c(Oc2cnc(OCC(F)(F)F)c(Cl)c2)cc1F [Example 217, (S)-1-(5-Chloro-4-((5-chloro-6-(2,2,2-trifluoroethoxy)pyridin-3-yl)oxy)-2-fluorobenzoyl)pyrrolidine-2-carboxylic acid trifluoroacetate]
19 | 345 | O=C(O)[C@@H]1CCCN1C(=O)c1cc(Cl)c(COc2ccc(OC(F)(F)F)c(Cl)c2)cc1F [Example 30, (S)-1-(5-chloro-4-((3-chloro-4-(trifluoromethoxy)phenoxy)methyl)-2-fluorobenzoyl)pyrrolidine-2-carboxylic acid]
20 | ≥ 10000 | O=C(O)[C@@H]1CCCN1C(=O)c1cc(Cl)c(OC[C@@H]2C[C@@H]3[C@H](C2)C3(F)F)cc1F [Example 44]
21 | 18.1 | O=C(O)[C@@H]1CCCN1C(=O)c1cc(C2CC2)c(OCC2CCN(C(c3ccccc3)c3cc(Cl)cc(Cl)c3)CC2)cc1F (stereo partly drawn) [Example 26, (2S)-1-(5-cyclopropyl-4-((1-((3,5-dichlorophenyl)(phenyl)methyl)piperidin-4-yl)methoxy)-2-fluorobenzoyl)pyrrolidine-2-carboxylic acid trifluoroacetic acid salt]
22 | 82.3 | CC[C@H](C)[C@H](NC(=O)c1cc(C2CC2)c(OCC23CC4CC(CC(C4)C2)C3)cc1F)C(=O)O [Example 43, (2S,3S)-2-(4-(adamantan-1-ylmethoxy)-5-cyclopropyl-2-fluorobenzamido)-3-methylpentanoic acid]
23 | 452 | Cc1cc(C(=O)N2CCC[C@H]2C(=O)O)c(F)cc1OCC12CC3CC(CC(C3)C1)C2 [Example 40, (S)-1-(4-(adamantan-1-ylmethoxy)-2-fluoro-5-methylbenzoyl)pyrrolidine-2-carboxylic acid]
24 | 21.7 | O=C(O)[C@@H]1CCCN1C(=O)c1cc(C2CCC2)c(OCC23CC4CC(CC(C4)C2)C3)cc1F [Example 27, (S)-1-(4-(adamantan-1-ylmethoxy)-5-cyclobutyl-2-fluorobenzoyl)pyrrolidine-2-carboxylic acid]
25 | 629 | O=C(O)[C@@H]1CCCN1C(=O)c1cc(C2CC2)c(OCC2CCN(Cc3nc(-c4ccccc4Cl)no3)CC2)cc1F [Example 29, (S)-1-(4-((1-((3-(2-chlorophenyl)-1,2,4-oxadiazol-5-yl)methyl)piperidin-4-yl)methoxy)-5-cyclopropyl-2-fluorobenzoyl)pyrrolidine-2-carboxylic acid trifluoroacetic acid salt]
26 | 7830 | O=C(O)CNC(=O)c1cc(C2CC2)c(OCC23CC4CC(CC(C4)C2)C3)cc1F [Example 35, 2-(4-(adamantan-1-ylmethoxy)-5-cyclopropyl-2-fluorobenzamido) acetic acid]
